Where a SMILES comes first, the peptide text is derived from it. The star is where a group is joined. X1 = C/C(=C\C*)CC/C=C(\C)COCc1ccc(C(=O)c2ccccc2)cc1; X3 = C/C(=C\C*)CC/C=C(\C)COCc1cccc(C(=O)c2ccccc2)c1; Biotin = O=C1N[C@H]2[C@H](CS[C@H]2CCCCC(=O)*)N1; X2 = C/C(=C\C*)COCc1cccc(C(=O)c2ccccc2)c1; X4 = C/C(=C\C*)COCc1ccc(C(=O)c2ccccc2)cc1; PEG4 = NCCOCCOCCOCCOCCC(=O)O
Experiments:
yeast Icmt = conditions: cited from earlier work
human Icmt (hIcmt) = conditions: cited from earlier work
His-Icmt = experiment: Competition of photolabeling by 8b with AFC, His-hIcmt; type: binding, human; conditions: 8b 200 μM, increasing AFC; data not shown
[1] = target: T1, His10myc3N-hIcmt (His-hIcmt) (Homo sapiens, UniProt O60725); experiment: Inhibition of His-hIcmt methyltransferase activity; type: biochemical
T1 sequence (O60725 whole entry, the tested form may be a part): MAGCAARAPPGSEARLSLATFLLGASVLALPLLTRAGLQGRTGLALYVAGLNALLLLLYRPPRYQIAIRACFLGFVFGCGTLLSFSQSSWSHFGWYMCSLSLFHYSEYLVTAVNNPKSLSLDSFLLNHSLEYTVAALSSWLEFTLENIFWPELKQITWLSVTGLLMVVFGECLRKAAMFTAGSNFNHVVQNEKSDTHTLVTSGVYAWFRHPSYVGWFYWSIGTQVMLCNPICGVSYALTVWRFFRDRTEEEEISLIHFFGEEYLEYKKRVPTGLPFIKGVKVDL

[2] = target: T2, His10myc3N-Ste14p (His-Ste14p) (Saccharomyces cerevisiae, UniProt P32584); experiment: In vitro methyltransferase vapor diffusion assay, substrate kinetics, His-Ste14p; type: biochemical, S. cerevisiae; conditions: for Fold lower Km of para- vs meta-substituted benzophenone a-factor analogs: His-Ste14p, vs meta-substituted analogs (7a, 8a); for Vmax: crude yeast membranes expressing His-Ste14p
T2 sequence (P32584 1-239): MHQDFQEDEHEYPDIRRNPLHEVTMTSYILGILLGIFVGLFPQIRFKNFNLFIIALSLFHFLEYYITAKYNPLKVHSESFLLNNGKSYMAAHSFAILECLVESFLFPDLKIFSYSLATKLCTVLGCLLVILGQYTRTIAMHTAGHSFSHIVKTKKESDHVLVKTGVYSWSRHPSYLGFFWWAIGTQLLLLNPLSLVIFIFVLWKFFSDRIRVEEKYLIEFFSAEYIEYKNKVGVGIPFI

[3] = target: T1, His10myc3N-hIcmt (His-hIcmt); conditions: AFC; ± S.D.; cited from earlier work
[4] = target: T2, His10myc3N-Ste14p (His-Ste14p); conditions: read-out: Km(app); AFC positive control; ± S.D.; cited from earlier work

| SMILES | Substrate of yeast Icmt (in words) (yeast Icmt) | Substrate of human Icmt (in words) (human Icmt (hIcmt)) | Inhibition of His-hIcmt (in words) [1] | Vmax [2] [pmol/min/mg] | also measured |
| --- | --- | --- | --- | --- | --- |
| CC(C)=CCCC(C)=CCCC(C)=CCSCCC(=O)O [FTP, farnesyl thiopropionic acid] | substrates for both human and yeast Icmts | substrates for both human and yeast Icmts |  |  |  |
| CC[C@H](C)[C@H](NC(=O)[C@H](Cc1ccc(O)cc1)NC(=O)CCOCCOCCOCCOCCNC(=O)CCCC[C@@H]1SC[C@@H]2NC(=O)N[C@@H]21)C(=O)N[C@H](C(=O)N[C@@H](CCCCN)C(=O)NCC(=O)N[C@H](C(=O)N[C@@H](Cc1ccccc1)C(=O)N[C@@H](Cc1c[nH]c2ccccc12)C(=O)N[C@@H](CC(=O)O)C(=O)N1CCC[C@H]1C(=O)N[C@@H](C)C(=O)N[C@@H](CSC/C=C(\C)CC/C=C(\C)COCc1ccc(C(=O)c2ccccc2)cc1)C(=O)O)C(C)C)[C@@H](C)CC [Compound 8b, Biotin-Peg4-YIIKGVFWDPAC(C10-para-Bp)] ({Biotin-PEG4}-YIIKGVFWDPAC(X1)-OH) |  |  | relatively potent |  | Mode of inhibition (in words) (His-Icmt): competitive inhibitor; Photolabeling by 8b in presence of AFC (in words) (His-Icmt): decreased with increasing AFC concentration; Fold lower Km of para- vs meta-substituted benzophenone a-factor analogs [2]: 2 – 3 times lower |
| CC(=O)N[C@@H](CSC/C=C(\C)CC/C=C(\C)CCC=C(C)C)C(=O)O [Compound 1, N-acetyl-S-farnesyl-L-cysteine] | substrates for both human and yeast Icmts | substrates for both human and yeast Icmts |  | 869 | Km [3]: 10.3 ± 0.5 µM; Km [4]: 15.9 ± 0.9 µM |
| CC(=O)N[C@@H](CSC/C=C(\C)CC/C=C(\C)CC/C=C(\C)CCC=C(C)C)C(=O)O [AGGC, N-acetyl-S-geranylgeranyl-L-cysteine] | substrates for both human and yeast Icmts | substrates for both human and yeast Icmts |  |  |  |
| CC[C@H](C)[C@H](NC(=O)[C@H](Cc1ccc(O)cc1)NC(=O)CCOCCOCCOCCOCCNC(=O)CCCC[C@@H]1SC[C@@H]2NC(=O)N[C@@H]21)C(=O)N[C@H](C(=O)N[C@@H](CCCCN)C(=O)NCC(=O)N[C@H](C(=O)N[C@@H](Cc1ccccc1)C(=O)N[C@@H](Cc1c[nH]c2ccccc12)C(=O)N[C@@H](CC(=O)O)C(=O)N1CCC[C@H]1C(=O)N[C@@H](C)C(=O)N[C@@H](CSC/C=C(\C)COCc1cccc(C(=O)c2ccccc2)c1)C(=O)O)C(C)C)[C@@H](C)CC [Compound 7a, Biotin-Peg4-YIIKGVFWDPAC(C5-meta-Bp)] ({Biotin-PEG4}-YIIKGVFWDPAC(X2)-OH) |  |  | poor inhibitors of His-hIcmt | 473 |  |
| CC[C@H](C)[C@H](NC(=O)[C@H](Cc1ccc(O)cc1)NC(=O)CCOCCOCCOCCOCCNC(=O)CCCC[C@@H]1SC[C@@H]2NC(=O)N[C@@H]21)C(=O)N[C@H](C(=O)N[C@@H](CCCCN)C(=O)NCC(=O)N[C@H](C(=O)N[C@@H](Cc1ccccc1)C(=O)N[C@@H](Cc1c[nH]c2ccccc12)C(=O)N[C@@H](CC(=O)O)C(=O)N1CCC[C@H]1C(=O)N[C@@H](C)C(=O)N[C@@H](CSC/C=C(\C)COCc1ccc(C(=O)c2ccccc2)cc1)C(=O)O)C(C)C)[C@@H](C)CC [Compound 7b, Biotin-Peg4-YIIKGVFWDPAC(C5-para-Bp)] ({Biotin-PEG4}-YIIKGVFWDPAC(X4)-OH) |  |  | poor inhibitors of His-hIcmt |  | Fold lower Km of para- vs meta-substituted benzophenone a-factor analogs [2]: 2 – 3 times lower |
| CC[C@H](C)[C@H](NC(=O)[C@H](Cc1ccc(O)cc1)NC(=O)CCOCCOCCOCCOCCNC(=O)CCCC[C@@H]1SC[C@@H]2NC(=O)N[C@@H]21)C(=O)N[C@H](C(=O)N[C@@H](CCCCN)C(=O)NCC(=O)N[C@H](C(=O)N[C@@H](Cc1ccccc1)C(=O)N[C@@H](Cc1c[nH]c2ccccc12)C(=O)N[C@@H](CC(=O)O)C(=O)N1CCC[C@H]1C(=O)N[C@@H](C)C(=O)N[C@@H](CSC/C=C(\C)CC/C=C(\C)COCc1cccc(C(=O)c2ccccc2)c1)C(=O)O)C(C)C)[C@@H](C)CC [Compound 8a, Biotin-Peg 4-YIIKGVFWDPAC(C10-meta-Bp)] ({Biotin-PEG4}-YIIKGVFWDPAC(X3)-OH) |  |  | relatively potent | 762 |  |
